This is an account of results in US12071411B2, “Inhibitors of HIF-2α and methods of use thereof” (ARCUS BIOSCIENCES, INC., priority 2021, dated 2024).

Like-named read-outs stand apart in the source and are kept apart here.

Test [1] deals with T1, HIF-2α (Homo sapiens, UniProt Q99814). The test can be described thus: HIF-2α Luciferase Reporter Assay (serum free) in HIF-Luc-786-0 cells. In kind it is cell-based. Conditions: Opti-MEM, 786-0 reporter cells, 20 hours incubation. Put shortly:
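786-0 cells stably transduced with HIF luciferase reporter, 20,000 cells/well in serum-free Opti-MEM, compounds (50 uM downward, 1% DMSO) 20 h at 37 °C. ONE-Glo luminescence normalized to DMSO and no-cell controls; IC50 from four-parameter fit.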

For test [2], the target named is T1, HIF-2α. The test can be described thus: HIF-2α Luciferase Reporter Assay (serum), HRE-luciferase 786-0 cells in 100% human serum. Conditions: for IC50: 100% human serum, 786-0 reporter cells, overnight incubation, read-out: Serum Potency. Format: cell-based. Put shortly:
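786-0 cells stably expressing an HRE-luciferase reporter were plated and rested 3 h. They were then treated overnight at 37 °C with compound diluted in 100% human serum. Serum was replaced with Opti-MEM, ONE-Glo luminescence was read, and IC50 came from a 4-parameter logistic fit.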
For orientation: A reporter such as luciferase makes a cellular process visible.

The mark [3] stands for this setting: ratio of IC50 in 100% serum to IC50 in serum free conditions, approximate.

T1 sequence (Q99814 whole entry): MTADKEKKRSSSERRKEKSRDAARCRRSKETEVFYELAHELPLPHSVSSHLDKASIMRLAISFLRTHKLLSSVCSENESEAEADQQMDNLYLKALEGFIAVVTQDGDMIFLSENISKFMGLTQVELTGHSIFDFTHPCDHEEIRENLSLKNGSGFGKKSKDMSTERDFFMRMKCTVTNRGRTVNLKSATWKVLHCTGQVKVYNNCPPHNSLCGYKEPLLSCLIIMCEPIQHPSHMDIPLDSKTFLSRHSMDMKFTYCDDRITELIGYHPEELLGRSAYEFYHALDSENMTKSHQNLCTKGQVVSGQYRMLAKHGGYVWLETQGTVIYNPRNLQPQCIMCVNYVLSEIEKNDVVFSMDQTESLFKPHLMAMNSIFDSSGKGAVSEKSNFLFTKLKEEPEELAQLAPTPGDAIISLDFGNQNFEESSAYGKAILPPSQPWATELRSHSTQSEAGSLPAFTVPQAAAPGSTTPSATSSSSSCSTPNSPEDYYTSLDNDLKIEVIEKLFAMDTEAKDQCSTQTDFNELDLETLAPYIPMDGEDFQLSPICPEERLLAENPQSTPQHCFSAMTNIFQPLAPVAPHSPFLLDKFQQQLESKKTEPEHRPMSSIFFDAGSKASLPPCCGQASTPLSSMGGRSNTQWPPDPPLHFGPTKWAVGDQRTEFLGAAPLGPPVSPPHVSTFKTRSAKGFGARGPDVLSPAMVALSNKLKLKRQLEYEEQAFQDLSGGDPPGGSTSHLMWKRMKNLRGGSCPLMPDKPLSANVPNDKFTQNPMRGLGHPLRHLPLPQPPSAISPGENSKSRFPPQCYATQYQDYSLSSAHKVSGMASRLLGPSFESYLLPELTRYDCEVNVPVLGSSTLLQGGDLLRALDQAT

Regarding `[O-][S+](CCn1nc(C(F)(F)F)c2c1CCC(F)(F)[C@H]2O)C(F)F` (stereo partly drawn) [Example 128, (4S)-1-[2-(difluoromethylsulfinyl)ethyl]-5,5-difluoro-3-(trifluoromethyl)-6,7-dihydro-4H-indazol-4-ol], the results for the IC50 at HIF-2α [1] and at HIF-2α [2] were 100 to 1000 nM and more than 1000 nM, respectively. For the same compound, the “Serum Shift (approximate)” value on HIF-2α [2] (setting [3]) turned out to be 4.

As for `O[C@H]1c2c(C(F)(F)F)nn(CCc3cccc(F)c3)c2CC1(F)F` [Example 79, (4S)-5,5-difluoro-1-[2-(3-fluorophenyl)ethyl]-3-(trifluoromethyl)-1H,4H,5H,6H-cyclopenta[c]pyrazol-4-ol], the IC50 against HIF-2α [1] was less than 100 nM; on HIF-2α [2], more than 1000 nM. Also, the “Serum Shift (approximate)” value on HIF-2α [2] (setting [3]) came out at 13.

Turning to `O[C@H]1c2c(C(F)(F)F)nn([C@@H]3C[C@@H](F)[C@@H](F)[C@@H](F)C3)c2CC1(F)F` [Example 70, (4S)-5,5-difluoro-1-[(3R,5S)-3,4,5-trifluorocyclohexyl]-3-(trifluoromethyl)-4,6-dihydrocyclopenta[c]pyrazol-4-ol], the IC50 at HIF-2α [1] and at HIF-2α [2] was 100 to 1000 nM throughout. Also, the “Serum Shift (approximate)” value on HIF-2α [2] (setting [3]) stood at 0.

With `O[C@H]1c2c(C(F)(F)F)nn([C@H]3C[C@@H](F)[C@@H](F)[C@@H](F)C3)c2[C@@H](F)[C@H]1F` [Example 143, (4S,5S,6R)-5,6-difluoro-1-[(3R,5S)-3,4,5-trifluorocyclohexyl]-3-(trifluoromethyl)-5,6-dihydro-4H-cyclopenta[c]pyrazol-4-ol], the IC50 at HIF-2α [1] was 100 to 1000 nM; on HIF-2α [2], more than 1000 nM. Also, the “Serum Shift (approximate)” value on HIF-2α [2] (setting [3]) stood at 9.

Regarding `O[C@H]1c2c(C(F)(F)F)nn([C@H]3CCO[C@@H](C(F)(F)F)C3)c2CC1(F)F` (single isomer, unassigned) [94/95 DIAST-1], the IC50 is less than 100 nM on HIF-2α [1] and more than 1000 nM at HIF-2α [2]. In addition, the “Serum Shift (approximate)” value on HIF-2α [2] (setting [3]) is 17.

Take `COC(C)CCn1nc(C(F)(F)F)c2c1CCC(F)(F)[C@H]2O` (stereo partly drawn) [Example 13, (4S)-5,5-difluoro-1-(3-methoxybutyl)-3-(trifluoromethyl)-6,7-dihydro-4H-indazol-4-ol]: the IC50 at HIF-2α [1] and on HIF-2α [2] was 100 to 1000 nM in each case. In addition, the “Serum Shift (approximate)” value at HIF-2α [2] (setting [3]) is given as 2.

For `O[C@H]1c2c(C(F)(F)F)nn(CCc3cnoc3)c2CC1(F)F` [Example 75, (4S)-5,5-difluoro-1-[2-(1,2-oxazol-4-yl)ethyl]-3-(trifluoromethyl)-4,6-dihydrocyclopenta[c]pyrazol-4-ol], the IC50 on HIF-2α [1] is less than 100 nM; at HIF-2α [2], more than 1000 nM. In addition, the “Serum Shift (approximate)” value on HIF-2α [2] (setting [3]) was 5.

As to `C[C@H](C#N)CCn1nc(C(F)(F)F)c2c1C[C@@H](F)[C@H]2O` [Example 83, (2S)-4-[(4S,5R)-5-fluoro-4-hydroxy-3-(trifluoromethyl)-1H,4H,5H,6H-cyclopenta[c]pyrazol-1-yl]-2-methylbutanenitrile], the IC50 is 100 to 1000 nM against HIF-2α [1] and more than 1000 nM on HIF-2α [2]. In addition, the “Serum Shift (approximate)” value at HIF-2α [2] (setting [3]) worked out at 3.

Turning to `O[C@H]1c2c(C(F)(F)F)nn([C@@H]3C[C@@H](F)[C@@H](F)[C@@H](F)C3)c2[C@H](F)[C@H]1F` [Example 138, (4S,5S,6S)-5,6-difluoro-1-[(3R,5S)-3,4,5-trifluorocyclohexyl]-3-(trifluoromethyl)-5,6-dihydro-4H-cyclopenta[c]pyrazol-4-ol], the IC50 against HIF-2α [1] was less than 100 nM; at HIF-2α [2], more than 1000 nM. Besides, the “Serum Shift (approximate)” value at HIF-2α [2] (setting [3]) is reported as 9.

`O[C@H]1c2c(C(F)(F)F)nn(CCc3ccsc3)c2CC1(F)F` [Example 76, (4S)-5,5-difluoro-1-(2-thiophen-3-ylethyl)-3-(trifluoromethyl)-4,6-dihydrocyclopenta[c]pyrazol-4-ol]: the IC50 against HIF-2α [1] was 100 to 1000 nM; at HIF-2α [2] it was more than 1000 nM. For the same compound, at HIF-2α [2] (setting [3]), the “Serum Shift (approximate)” value is 17.

For the compound `CO[C@H](CCn1nc(C(F)(F)F)c2c1[C@H](F)C(F)(F)[C@H]2O)C(F)(F)F` (single isomer, unassigned) [148/149 DIAST-1], the IC50 on HIF-2α [1] and at HIF-2α [2] was less than 100 nM in each case. In addition, the “Serum Shift (approximate)” value at HIF-2α [2] (setting [3]) was determined as 9.

In the case of `CCO[C@H](CCn1nc(C(F)(F)F)c2c1CC(F)(F)[C@H]2O)C(F)(F)F` [Example 101, (4S)-1-[(3R)-3-ethoxy-4,4,4-trifluorobutyl]-5,5-difluoro-3-(trifluoromethyl)-4,6-dihydrocyclopenta[c]pyrazol-4-ol], the IC50 on HIF-2α [1] was less than 100 nM; at HIF-2α [2] it was more than 1000 nM. On HIF-2α [2] (setting [3]), the “Serum Shift (approximate)” value worked out at 11.

Regarding `CO[C@H]1C[C@H](n2nc(C(F)(F)F)c3c2CC(F)(F)[C@H]3O)CCC1(F)F` (racemic) [Example 111, (4S)-1-[(1R,3S)-4,4-difluoro-3-methoxycyclohexyl]-5,5-difluoro-3-(trifluoromethyl)-1H,4H,5H,6H-cyclopenta[c]pyrazol-4-ol and (4S)-1-[(1S,3R)-4,4-difluoro-3-methoxycyclohexyl]-5,5-difluoro-3-(trifluoromethyl)-1H,4H,5H,6H-cyclopenta[c]pyrazol-4-ol], the values for the IC50 at HIF-2α [1] and at HIF-2α [2] were less than 100 nM and more than 1000 nM, respectively. Also, at HIF-2α [2] (setting [3]), the “Serum Shift (approximate)” value came out at 9.

Consider `O[C@H]1c2c(C(F)(F)F)nn(CCCOC(F)(F)F)c2[C@@H](F)CC1(F)F` (single isomer, unassigned) [129/130 DIAST-1], for which the IC50 at HIF-2α [1] was 100 to 1000 nM; on HIF-2α [2] it was more than 1000 nM. Besides, the “Serum Shift (approximate)” value on HIF-2α [2] (setting [3]) worked out at 18.

With `O=S1(=O)CC(Cn2nc(C(F)(F)F)c3c2[C@H](F)C(F)(F)[C@H]3O)C1` (single isomer, unassigned) [144/145 DIAST-1], the IC50 at HIF-2α [1] is 100 to 1000 nM; on HIF-2α [2] it was more than 1000 nM. The “Serum Shift (approximate)” value at HIF-2α [2] (setting [3]) is recorded as 3.

`O[C@H]1c2c(C(F)(F)F)nn(C3CCC[C@H](OC(F)F)C3)c2CC1(F)F` (mixture of isomers) [Example 108, (4S)-1-[(1S,3S)-3-(difluoromethoxy)cyclohexyl]-5,5-difluoro-3-(trifluoromethyl)-1H,4H,5H,6H-cyclopenta[c]pyrazol-4-ol and (4S)-1-[(1R,3R)-3-(difluoromethoxy)cyclohexyl]-5,5-difluoro-3-(trifluoromethyl)-1H,4H,5H,6H-cyclopenta[c]pyrazol-4-ol]: the IC50 against HIF-2α [1] was less than 100 nM; at HIF-2α [2], more than 1000 nM. In addition, on HIF-2α [2] (setting [3]), the “Serum Shift (approximate)” value worked out at 19.

In the case of `O=S1(=O)CCCC(n2nc(C(F)(F)F)c3c2CC(F)(F)[C@H]3O)C1` (stereo partly drawn) [Example 86, 3-[(4S)-5,5-difluoro-4-hydroxy-3-(trifluoromethyl)-1H,4H,5H,6H-cyclopenta[c]pyrazol-1-yl]-1λ^6-thiane-1,1-dione], the IC50 at HIF-2α [1] and on HIF-2α [2] was 100 to 1000 nM in each case. Besides, the “Serum Shift (approximate)” value on HIF-2α [2] (setting [3]) was found to be 3.

Take `O[C@H]1c2c(C(F)(F)F)nn(-c3ccc(F)cc3)c2CC1(F)F` [Example 114, (4S)-5,5-difluoro-1-(4-fluorophenyl)-3-(trifluoromethyl)-4,6-dihydrocyclopenta[c]pyrazol-4-ol]: the IC50 against HIF-2α [1] was in the range of 100 to 1000 nM. For the same compound, on HIF-2α [2], the “Serum Shift (approximate)” value is 27 and the IC50 was more than 1000 nM.

Consider `O[C@H]1c2c(C(F)(F)F)nn(C3COCC(F)(F)C3)c2CC1(F)F` (stereo partly drawn) [Example 85, (4S)-1-(5,5-difluorooxan-3-yl)-5,5-difluoro-3-(trifluoromethyl)-1H,4H,5H,6H-cyclopenta[c]pyrazol-4-ol], for which the results for the IC50 against HIF-2α [1] and at HIF-2α [2] were 100 to 1000 nM and more than 1000 nM, respectively. Further, the “Serum Shift (approximate)” value on HIF-2α [2] (setting [3]) came to 6.

As for `O[C@H]1c2c(C(F)(F)F)nn([C@H]3CC[C@H](F)[C@H](F)C3)c2[C@@H](F)C1(F)F` [Example 157, (4S,6R)-1-[(1S,3R,4S)-3,4-difluorocyclohexyl]-5,5,6-trifluoro-3-(trifluoromethyl)-4,6-dihydrocyclopenta[c]pyrazol-4-ol], the IC50 against HIF-2α [1] and on HIF-2α [2] was less than 100 nM throughout. Also, at HIF-2α [2] (setting [3]), the “Serum Shift (approximate)” value is 3.

`O[C@H]1c2c(C(F)(F)F)nn([C@@H]3CCC[C@H](OC(F)F)C3)c2CC1(F)F` (racemic) [Example 112, (4S)-1-[(1R,3S)-3-(difluoromethoxy)cyclohexyl]-5,5-difluoro-3-(trifluoromethyl)-1H,4H,5H,6H-cyclopenta[c]pyrazol-4-ol and (4S)-1-[(1S,3R)-3-(difluoromethoxy)cyclohexyl]-5,5-difluoro-3-(trifluoromethyl)-1H,4H,5H,6H-cyclopenta[c]pyrazol-4-ol]: the values for the IC50 against HIF-2α [1] and at HIF-2α [2] were less than 100 nM and more than 1000 nM, respectively. On HIF-2α [2] (setting [3]), the “Serum Shift (approximate)” value was 17.

As to `CC(CCn1nc(C(F)(F)F)c2c1CCC(F)(F)[C@H]2O)OC(F)F` (stereo partly drawn) [Example 15, (4S)-1-[3-(difluoromethoxy)butyl]-5,5-difluoro-3-(trifluoromethyl)-6,7-dihydro-4H-indazol-4-ol], the IC50 on HIF-2α [1] and on HIF-2α [2] was less than 100 nM in each case. In addition, the “Serum Shift (approximate)” value on HIF-2α [2] (setting [3]) came out at 6.

Consider `O[C@H]1c2c(C(F)(F)F)nn([C@@H]3C[C@@H](F)[C@@H](F)[C@@H](F)C3)c2[C@@H](F)C1(F)F` (single isomer, unassigned) [146/147 DIAST-2], for which the IC50 on HIF-2α [1] was less than 100 nM; at HIF-2α [2], 100 to 1000 nM. Further, on HIF-2α [2] (setting [3]), the “Serum Shift (approximate)” value stood at 8.

Consider `O[C@H]1c2c(C(F)(F)F)nn([C@@H]3C[C@@H](F)[C@@H](F)[C@@H](F)C3)c2[C@@H](F)[C@H]1F` [Example 140, (4S,5S,6R)-5,6-difluoro-1-[(3R,5S)-3,4,5-trifluorocyclohexyl]-3-(trifluoromethyl)-5,6-dihydro-4H-cyclopenta[c]pyrazol-4-ol], for which, at HIF-2α [1], the IC50 was less than 100 nM. On HIF-2α [2], the “Serum Shift (approximate)” value is 3 and the IC50 was in the range of 100 to 1000 nM.
